Test results published in PMC5737456 (Pain, 2017).

How the values were obtained:
Format in all cases: cell-based
human TRESK (hTRESK) [1] = target: T1, human TRESK (hTRESK) (Homo sapiens, UniProt Q7Z418); experiment: whole-cell patch clamp in transfected HEK293 cells, single concentration […]; conditions: HEK293, read-out: % inhibition at 20 μM
T1 sequence (Q7Z418 1-384): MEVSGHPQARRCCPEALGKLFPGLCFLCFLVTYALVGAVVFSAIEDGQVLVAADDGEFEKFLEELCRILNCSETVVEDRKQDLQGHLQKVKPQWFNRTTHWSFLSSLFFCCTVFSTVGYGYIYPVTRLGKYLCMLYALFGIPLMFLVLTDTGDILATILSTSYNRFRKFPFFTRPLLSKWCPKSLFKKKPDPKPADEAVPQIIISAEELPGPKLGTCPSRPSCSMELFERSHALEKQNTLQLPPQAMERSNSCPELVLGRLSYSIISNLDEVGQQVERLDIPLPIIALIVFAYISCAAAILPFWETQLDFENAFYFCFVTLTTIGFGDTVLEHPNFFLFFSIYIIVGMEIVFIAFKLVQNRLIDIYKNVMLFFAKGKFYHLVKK

rat TRESK = target: T2, rat TRESK (Rattus norvegicus, UniProt Q6Q1P3); experiment: whole-cell patch clamp in transfected HEK293 cells, […]
T2 sequence (Q6Q1P3 1-405): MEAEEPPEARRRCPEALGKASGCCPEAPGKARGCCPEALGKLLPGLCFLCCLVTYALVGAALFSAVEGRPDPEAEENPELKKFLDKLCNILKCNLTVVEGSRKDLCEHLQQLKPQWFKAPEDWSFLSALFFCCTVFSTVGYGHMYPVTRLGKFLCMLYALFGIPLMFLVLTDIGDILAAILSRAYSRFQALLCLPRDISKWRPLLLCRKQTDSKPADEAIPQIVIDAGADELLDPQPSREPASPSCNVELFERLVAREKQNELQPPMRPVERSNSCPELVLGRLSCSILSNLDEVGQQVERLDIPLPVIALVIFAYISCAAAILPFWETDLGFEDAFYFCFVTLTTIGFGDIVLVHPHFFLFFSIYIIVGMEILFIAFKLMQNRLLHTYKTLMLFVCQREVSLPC

human TRESK (hTRESK) [2] = target: T1, human TRESK (hTRESK); experiment: whole-cell patch clamp in transfected HEK293 cells, dose-response
mouse TRAAK (mTRAAK) = target: T3, mouse TRAAK (mTRAAK) (Mus musculus, UniProt O88454); experiment: as above
T3 sequence (O88454 1-398): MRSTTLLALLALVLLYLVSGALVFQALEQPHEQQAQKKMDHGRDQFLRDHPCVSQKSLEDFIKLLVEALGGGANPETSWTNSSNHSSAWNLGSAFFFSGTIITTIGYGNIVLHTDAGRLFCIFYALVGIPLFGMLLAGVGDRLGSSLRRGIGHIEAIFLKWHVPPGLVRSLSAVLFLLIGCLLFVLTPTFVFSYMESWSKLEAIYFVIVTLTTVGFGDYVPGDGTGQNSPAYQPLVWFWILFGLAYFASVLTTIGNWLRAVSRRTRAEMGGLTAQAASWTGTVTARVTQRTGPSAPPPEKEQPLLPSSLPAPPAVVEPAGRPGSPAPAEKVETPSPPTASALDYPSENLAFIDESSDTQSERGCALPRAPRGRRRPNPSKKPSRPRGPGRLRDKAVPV

human TREK-2 (hTREK-2) = target: T4, human TREK-2 (hTREK-2) (Homo sapiens, UniProt P57789); experiment: as above
T4 sequence (P57789 1-538): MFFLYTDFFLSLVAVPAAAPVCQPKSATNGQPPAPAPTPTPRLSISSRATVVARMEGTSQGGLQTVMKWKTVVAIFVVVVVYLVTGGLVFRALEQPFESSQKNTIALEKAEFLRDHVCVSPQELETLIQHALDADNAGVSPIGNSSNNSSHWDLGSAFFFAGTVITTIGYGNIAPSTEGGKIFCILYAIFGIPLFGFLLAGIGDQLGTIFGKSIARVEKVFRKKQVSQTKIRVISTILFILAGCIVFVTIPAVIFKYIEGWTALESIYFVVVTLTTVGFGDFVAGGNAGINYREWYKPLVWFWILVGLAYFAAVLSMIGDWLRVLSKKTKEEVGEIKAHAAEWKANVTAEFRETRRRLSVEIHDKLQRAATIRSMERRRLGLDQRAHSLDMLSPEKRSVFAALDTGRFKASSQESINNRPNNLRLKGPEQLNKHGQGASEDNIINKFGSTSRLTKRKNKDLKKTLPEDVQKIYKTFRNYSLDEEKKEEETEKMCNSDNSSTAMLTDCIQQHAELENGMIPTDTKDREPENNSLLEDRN

mouse TRESK (mTRESK) = target: T5, mouse TRESK (mTRESK) (Mus musculus, UniProt Q6VV64); experiment: whole-cell patch clamp dose-response
T5 sequence (Q6VV64 1-394): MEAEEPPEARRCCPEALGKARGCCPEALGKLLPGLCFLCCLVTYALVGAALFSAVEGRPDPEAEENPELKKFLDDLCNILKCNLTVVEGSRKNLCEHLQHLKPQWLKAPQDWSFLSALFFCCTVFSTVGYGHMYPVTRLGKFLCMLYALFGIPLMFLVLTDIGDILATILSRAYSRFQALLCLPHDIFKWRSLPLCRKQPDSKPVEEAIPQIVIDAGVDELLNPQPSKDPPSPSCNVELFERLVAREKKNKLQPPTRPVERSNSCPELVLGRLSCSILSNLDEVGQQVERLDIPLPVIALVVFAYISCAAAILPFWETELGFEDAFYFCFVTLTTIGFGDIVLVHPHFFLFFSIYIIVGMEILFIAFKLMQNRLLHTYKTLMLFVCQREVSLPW

CC1(C)[C@H](C(=O)O[C@H](C#N)c2cccc(Oc3ccccc3)c2)[C@@H]1C=C(Br)Br [DM, deltamethrin]
inhibition at 20 µM (human TRESK (hTRESK) [1]): 30%

CC1(C)C(C=C(Cl)Cl)C1C(=O)OCc1cccc(Oc2ccccc2)c1 (stereo not shown) [PM, permethrin]
inhibition at 20 µM (human TRESK (hTRESK) [1]): 27%

CC(C)=CC1C(C(=O)OCN2C(=O)C3=C(CCCC3)C2=O)C1(C)C (stereo not shown) [TM, Tetramethrin]
whole-cell patch clamp in transfected HEK293 cells, 20 μM (rat TRESK): TM was also tested on rat and mouse TRESK orthologs, with similar inhibitory effects
IC50 (human TRESK (hTRESK) [2]): 10.7 µM
IC50 (mouse TRAAK (mTRAAK)): 12.6 µM
IC50 (human TREK-2 (hTREK-2)): 75.6 µM
IC50 (mouse TRESK (mTRESK)): 34.9 µM
